Legend:
[1] = target: T1, Sterol O-acyltransferase 1 (Rattus norvegicus, UniProt O70536); assay: In vitro inhibition of acyl coenzyme A:cholesterol acyltransferase (ACAT) in rat hepatic microsomes by using AIV assay.; set-up: species or system Liver
T1 sequence (O70536 whole entry): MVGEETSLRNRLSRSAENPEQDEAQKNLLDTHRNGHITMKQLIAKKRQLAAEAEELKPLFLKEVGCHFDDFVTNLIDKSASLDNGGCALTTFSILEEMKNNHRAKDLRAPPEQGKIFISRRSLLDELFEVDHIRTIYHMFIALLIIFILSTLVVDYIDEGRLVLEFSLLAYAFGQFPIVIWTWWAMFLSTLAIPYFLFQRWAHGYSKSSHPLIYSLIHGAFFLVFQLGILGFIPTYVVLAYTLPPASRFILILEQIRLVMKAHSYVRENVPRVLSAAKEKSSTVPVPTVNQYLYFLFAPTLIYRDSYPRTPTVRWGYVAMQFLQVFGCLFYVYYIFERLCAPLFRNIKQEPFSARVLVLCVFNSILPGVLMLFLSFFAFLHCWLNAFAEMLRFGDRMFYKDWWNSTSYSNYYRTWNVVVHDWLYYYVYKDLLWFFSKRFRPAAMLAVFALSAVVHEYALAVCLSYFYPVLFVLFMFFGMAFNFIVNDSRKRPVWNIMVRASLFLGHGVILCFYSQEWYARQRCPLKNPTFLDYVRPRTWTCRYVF

[2] = target: T2, Sterol O-acyltransferase 1 (Mus musculus, UniProt Q61263); assay: Inhibition of acyl coenzyme A:cholesterol acyltransferase (ACAT) in J774 Macrophage cell culture by using J774 assay.; type: cell-based
T2 sequence (Q61263 whole entry): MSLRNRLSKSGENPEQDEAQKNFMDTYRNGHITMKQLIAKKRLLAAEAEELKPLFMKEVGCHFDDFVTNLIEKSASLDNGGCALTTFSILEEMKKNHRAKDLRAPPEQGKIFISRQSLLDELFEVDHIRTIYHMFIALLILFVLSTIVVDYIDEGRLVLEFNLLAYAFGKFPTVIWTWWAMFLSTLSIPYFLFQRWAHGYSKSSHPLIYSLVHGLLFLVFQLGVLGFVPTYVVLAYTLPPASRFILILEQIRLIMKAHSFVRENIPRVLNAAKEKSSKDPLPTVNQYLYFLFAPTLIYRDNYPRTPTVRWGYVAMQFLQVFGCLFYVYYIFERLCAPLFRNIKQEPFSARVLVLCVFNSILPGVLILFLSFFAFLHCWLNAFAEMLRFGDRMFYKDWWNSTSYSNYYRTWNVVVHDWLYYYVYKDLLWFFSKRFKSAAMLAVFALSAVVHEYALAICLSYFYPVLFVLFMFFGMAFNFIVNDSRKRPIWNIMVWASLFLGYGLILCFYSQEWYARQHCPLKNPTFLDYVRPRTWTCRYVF

[3] = Partition coefficient (logP); type: physicochemical; details: octanol/water
[4] = target: T1, Sterol O-acyltransferase 1; assay: In vitro inhibition of ACYL CoA:Cholesterol Acyltransferase (ACAT) in rat hepatic microsomes was measured by using AIV assay; set-up: species or system Liver
[5] = target: T1, Sterol O-acyltransferase 1; assay: In vitro inhibition of Acyl coenzyme A:cholesterol acyltransferase (ACAT) in rat hepatic microsomes was measured by using AIV assay; IA means the compound was inactive; set-up: species or system Liver
[6] = target: T2, Sterol O-acyltransferase 1; assay: Inhibition of Acyl coenzyme A:cholesterol acyltransferase (ACAT) in J774 Macrophage cell culture was measured by using J774 assay; IA means the compound was inactive; type: cell-based
[7] = target: T2, Sterol O-acyltransferase 1; assay: Inhibition of Acyl coenzyme A:cholesterol acyltransferase (ACAT) in J774 Macrophage cell culture was measured by using J774 assay; IA means inactive; type: cell-based

Compound | IC50 ([1]; read-out: IC50) [µM] | IC50 [2] [µM] | logP [3] | other results
CCCCCCCN(CCCCCSc1nc(N)c2c[nH]nc2n1)C(=O)Nc1ccc(F)cc1F | 4.23 | 72.5 | 5.74 | 
CCCCCCN(CCCCCSc1nc2ccccc2n1C)C(=O)Nc1ccc(F)cc1F | 2.49 | 3.02 | 7.47 | 
CCCCCCN(CCOCCSc1nc2c[nH]cnc-2n1)C(=O)NC(C)C | 2 | 60 | 3.72 | 
CCCCCCCN(CCCCCSc1nnc(-c2ccccc2)c(-c2ccccc2)n1)C(=O)Nc1ccc(F)cc1F | 0.44 | 10.6 | 8.72 | 
CCCCCCCN(CCCCCSc1n[nH]c(-c2ccccc2)n1)C(=O)Nc1ccc(F)cc1F | 4 | 4.18 | 6.78 | 
CCCCCCCN(CCCCCSc1nc(-c2ccccc2)c(-c2ccccc2)n1-c1ccccc1)C(=O)Nc1ccc(F)cc1F |  | 54.5 |  | IC50 [1]: Not Active
CCCCCCCN(CCCCCSc1nc(O)c2ccccc2n1)C(=O)Nc1ccc(F)cc1F | 4 | 11 | 6.17 | 
CCCCCCCN(CCCCCSc1nc(O)cc(Cc2ccccc2)n1)C(=O)NC(C)C | 9.2 | 25 | 7.4 | 
CCCCCCCN(CCCCCSc1nc(-c2ccccc2)c(-c2ccccc2)n1C)C(=O)Nc1ccc(F)cc1F |  | 3.8 |  | 
CCCCCCCN(CCCCCSc1[nH]cnc2nncc1-2)C(=O)Nc1ccc(F)cc1F | 0.71 | 3.31 | 5.6 | 
CCCCCCCN(CCCCCSc1[nH]cnc2ncnc1-2)C(=O)Nc1ccc(F)cc1F | 0.2 | 5.32 | 5.32 | 
CCCCCCN(CCCCCSc1nc2ccccc2[nH]1)C(=O)Nc1ccc(F)cc1F | 0.5 | 3.1 | 7.29 | 
CCCCCCN(CCCCCSc1nc2cc([N+](=O)[O-])ccc2[nH]1)C(=O)Nc1ccc(F)cc1F | 2 | 8.33 | 7.19 | 
CCCCCCCN(CCCCCOC1=NC(S)=NC1(c1ccccc1)c1ccccc1)C(=O)NC(C)C |  | 2.79 |  | IC50 [4]: 0.09 µM
CCCCCCN(CCCCCSc1nc2ccccc2o1)C(=O)Nc1ccc(F)cc1F | 51 | 3.5 | 7.18 | 
CCCCCCCN(CCCCCSc1ncc[nH]1)C(=O)Nc1ccc(F)cc1F |  | 5.5 |  | 
CCCCCCCN(CCCCCSc1[nH]cnc2nncc1-2)C(=O)NC(C)C | 7.13 | 4.35 | 5 | 
CCCCCCN(CCCCCSc1nc2cc(OCC)ccc2s1)C(=O)Nc1ccc(F)cc1F |  | 4.54 | 8.46 | IC50 [5]: Not Active
CCCCCCN(CCCCCSc1nc2ccc[nH]c-2n1)C(=O)NC(C)C | 7.15 | 7.1 | 5.62 | 
CCCCCCCN(CCCCCSc1ncccn1)C(=O)Nc1ccc(F)cc1F | 3.3 | 4.37 | 5.41 | 

Compound | IC50 ([1]; read-out: IC50) [µM] | IC50 [2] [µM] | logP [3] | other results
CCCCCCN(CCCCCSc1nc2c(=O)n(C)c(=O)n(C)c2[nH]1)C(=O)NC(C)C | 3.6 | 1.53 | 5.1 | 
CCCCCCCN(CCCCCSC1N=C(c2ccccc2)c2ccccc2NC1=O)C(=O)NC(C)C (stereo not drawn) |  | 6.53 | 6.99 | 
CCCCCCN(CCCCCSc1nc2ccccc2s1)C(=O)Nc1ccc(F)cc1F | 4 | 2.73 | 7.78 | 
CCCCCCN(CCCCCSc1nc2cc(C)ccc2[nH]1)C(=O)Nc1ccc(F)cc1F | 1 | 2.06 | 7.79 | 
CCCCCCN(CCCCCSc1nc2c([nH]1)CCCC2)C(=O)Nc1ccc(F)cc1F | 0.81 | 2.58 | 6.81 | 
CCCCCCN(CCCCCSc1nc2c[nH]cnc-2n1)C(=O)NC(C)C | 23.7 | 19.1 | 4.66 | 
CCCCCCCN(CCCCCSc1ccccn1)C(=O)Nc1ccc(F)cc1F | 4 | 4.51 | 6.41 | 
CCCCCCCN(CCCCCSc1nc(N)c2c[nH]nc2n1)C(=O)NC(C)C |  |  | 5.14 | IC50 [1]: Not Active; IC50 [6]: Not Active
CCCCCCN(CCOCCSc1nc2c[nH]cnc-2n1)C(=O)Nc1ccc(F)cc1F |  |  | 4.32 | IC50 [1]: Not Active
CCCCCCCN(CCCCCSC1N=C(c2ccccc2)c2ccccc2NC1=O)C(=O)Nc1ccc(F)cc1F (stereo not drawn) |  | 6.96 | 7.59 | 
CCCCCCCN(CCCCCSc1nc(-c2ccccc2)c[nH]1)C(=O)Nc1ccc(F)cc1F |  | 1.6 |  | 
CCCCCCN(CCCCCSc1nc2c[nH]cnc-2n1)C(=O)Nc1ccc(F)cc1F | 0.86 |  | 5.26 | IC50 [7]: Not Active
CCCCCCCN(CCCCCSc1nc[nH]n1)C(=O)Nc1ccc(F)cc1F | 5 | 27.3 |  | 
CCCCCCCN(CCCCCSC1=NC(=O)C(c2ccccc2)(c2ccccc2)N1)C(=O)NC(C)C | 2.79 | 2.14 |  | 
CCCCCCCN(CCCCCSc1nc(N)cc(O)n1)C(=O)NC(C)C | 74 | 9.3 | 5.61 | 
CCCCCCCN(CCCCCSc1nc(-c2ccccc2)cn1-c1ccccc1)C(=O)Nc1ccc(F)cc1F | 7.2 | 6.02 |  | 
CCCCCCN(CCCCCSc1nc2ccc[nH]c-2n1)C(=O)Nc1ccc(F)cc1F | 3.6 | 5.47 | 6.22 | 
CCCCCCCN(CCCCCSc1[nH]cnc2ncnc1-2)C(=O)NC(C)C | 29.7 | 4.72 | 4.72 | 
CCCCCCCN(CCCCCSc1nnc(-c2ccccc2)n1-c1ccccc1)C(=O)Nc1ccc(F)cc1F | 19 | 4.8 | 8.64 | 

Reference: ChEMBL document CHEMBL1128038, “Acyl CoA:cholesterol acyltransferase (ACAT) inhibitors: ureas bearing heterocyclic groups bioisosteric for an imidazole” (Bioorg Med Chem Lett, 1995)
